# From ChEMBL document CHEMBL1151935, “Improvement of pharmacological properties of irreversible thyroid receptor coactivator binding inhibitors” (J Med Chem, 2009)
# Experiment: in vitro
# Settings: PAMPA, pH 7.4
row,Papp [×10⁻⁶ cm/s],SMILES
1,160,CCOCCOc1ccc(C(=O)CCN(C)C)cc1
2,610,CCCCCCSc1ccc(C(=O)CCN(C)C)c(Cl)c1
3,2,CCCCCCOc1ccc(C(=O)CCNc2cccc(Cl)c2)cc1
4,480,CCCCCCS(=O)(=O)c1cc(C)c(C(=O)CCN2CCNC(=O)C2)c(C)c1
5,730,CCCCCCOc1c(C)cc(C(=O)CCN(C)C)cc1C
6,650,CCCCCCOc1cc(C)c(C(=O)CCN(C)C)c(C)c1
7,730,CCCCCCOc1ccc(C(=O)CCN(C)C)cc1S(C)(=O)=O
8,220,CCCCCCS(=O)(=O)c1ccc(C(=O)CCN(C)C)c(Cl)c1Cl
9,230,CCCCCCOc1ccc(C(=O)CCN(C)C)cc1Cc1ccccc1
10,480,CCCCCCS(=O)(=O)c1cc(Cl)c(C(=O)CCN2CCN(C(C)=O)CC2)c(Cl)c1
11,700,CCCCCCOc1ccc2c(c1)OCC(CN(C)C)C2=O (configuration not stated)
12,930,CCCCCCOc1ccc(C(=O)CCN2CCOCC2)c(Cl)c1Cl
13,700,CCCCCCOc1cc(Cl)c(C(=O)CCN(C)C)c(Cl)c1
14,160,CCCCCCSc1cc(C)c(C(=O)CCN2CCN(S(=O)(=O)CC)CC2)c(C)c1
15,380,CCCCCCS(=O)(=O)c1ccc(C(=O)CCN(C)C)c(Cl)c1
16,910,CCCCCCOc1ccc(C(=O)C(CN(C)C)c2ccccc2)cc1 (configuration not stated)
17,760,CCCCCCS(=O)(=O)c1ccc(C(=O)CCN2CCOCC2)c(Cl)c1
18,360,CCCCCCS(=O)(=O)c1ccc(C(=O)CCN2CCN(C(C)=O)CC2)c(Cl)c1
19,0.2,CCCCCCOc1ccc(C(=O)CCNc2ccccc2)cc1
20,> 1,CCCCCCOc1cc(Cl)c(C(=O)CCN2CCOCC2)c(Cl)c1
21,560,CCCCCCS(=O)(=O)c1ccc(C(=O)CCN2CCOCC2)c(Cl)c1Cl
22,950,CCCCCCOc1ccc(C(=O)CCN(C)C)cc1OC
23,140,CCN1CCC(Cc2ccc(C(=O)CCN(C)C)cc2)CC1
24,30,CCCCCCSc1ccc(C(=O)CCN2CCN(S(=O)(=O)CC)CC2)c(Cl)c1Cl
25,830,CCCCCCOc1cccc(C(=O)CCN(C)C)c1

row,Papp [×10⁻⁶ cm/s],SMILES
1,80,CCCCCCOc1ccc(C(=O)CCN(C)C)c(Br)c1
2,740,CCCCCCSc1ccc(C(=O)CCN2CCN(S(=O)(=O)CC)CC2)c(Cl)c1
3,190,CCCCCCOc1ccc(C(=O)CCN(C)C)cc1C(C)(C)C
4,700,CCCCCCOc1ccc(C(=O)CCN(C)C)cc1F
5,660,CCCCCCOc1ccc(C(=O)CCN(C)C)c2ccccc12
6,710,CCCCCCOc1ccc2c(c1)CCC(CN(C)C)C2=O (configuration not stated)
7,170,CCCCCCOc1ccc(C(=O)CCN(C)C)c(N(C)C)c1
8,50,CCCCCS(=O)(=O)Nc1ccc(C(=O)CCN(C)C)cc1
9,230,CCCCCCOc1ccc2c(c1)CC(CN(C)C)C2=O (configuration not stated)
10,> 1,CCCCCCOc1ccc(C(=O)CCN2CCN(S(=O)(=O)CC)CC2)c(Cl)c1Cl
11,850,CCCCCCOc1ccc(C(=O)CCN(C)C)c(S(C)(=O)=O)c1
12,10,CCCCCCSc1cc(Cl)c(C(=O)CCN2CCOCC2)c(Cl)c1
13,500,CCCCCCOc1ccc(C(=O)CCN(C)C)c(C(F)(F)F)c1
14,380,CCCCCCS(=O)(=O)c1ccc(C(=O)CCN2CCN(S(=O)(=O)CC)CC2)c(Cl)c1Cl
15,50,CCCCCCSc1cc(Cl)c(C(=O)CCN2CCN(S(=O)(=O)CC)CC2)c(Cl)c1
16,560,CCCCCC(=O)Nc1ccc(C(=O)CCN(C)C)cc1
17,750,CCCCCCOc1ccc(C(=O)CCN(C)C)c(C)c1
18,170,CCCCCCSc1ccc(C(=O)CCN2CCOCC2)c(Cl)c1Cl
19,460,CCCCCCOc1ccc(C(=O)CCN(C)C)cc1Br
20,330,CCCCCCSc1cc(Cl)c(C(=O)CCN(C)C)cc1Cl
21,810,CCCCCCSc1cc(Cl)c(C(=O)CCN2CCNC(=O)C2)cc1Cl
22,540,CCCCCCS(=O)(=O)c1cc(Cl)c(C(=O)CCN2CCNC(=O)C2)cc1Cl
23,860,CCCCCCOc1cc(C(C)C)c(C(=O)CCN(C)C)cc1C
24,320,CCCN1CCN(c2ccc(C(=O)CCN(C)C)cc2)CC1
25,780,CCCCCCS(=O)(=O)c1ccc(C(=O)CCN(C)C)cc1

row,Papp [×10⁻⁶ cm/s],SMILES
1,830,CCCCCCOc1ccc(C(=O)CCN(C)C)cc1-c1ccccc1
2,140,CCCCCCSc1ccc(C(=O)CCN(C)C)c(Cl)c1Cl
3,10,CCCCNC(=O)Nc1ccc(C(=O)CCN(C)C)cc1
4,560,CCCCCCOc1ccc(C(=O)CCN(CCCC)CCCC)cc1
5,930,CCCCCCOc1ccc(C(=O)CCN(C)C)cc1C(F)(F)F
6,540,CCCCCCOc1ccc(C(=O)CCN(C)C)cc1I
7,20,CCCCCCSc1cc(Cl)c(C(=O)CCN2CCN(S(=O)(=O)CC)CC2)cc1Cl
8,350,CCCCCCSc1cc(Cl)c(C(=O)CCN(C)C)c(Cl)c1
9,170,CCCCCCS(=O)(=O)c1cc(Cl)c(C(=O)CCN(C)C)c(Cl)c1
10,90,CCCCCCS(=O)(=O)c1cc(Cl)c(C(=O)CCN(C)C)cc1Cl
11,680,CCCCCCS(=O)(=O)c1cc(Cl)c(C(=O)CCN2CCOCC2)cc1Cl
12,300,CCCCCCS(=O)(=O)c1ccc(C(=O)CCN2CCN(S(=O)(=O)CC)CC2)c(Cl)c1
13,770,CCCCCCNC(=O)c1ccc(C(=O)CCN(C)C)cc1
14,150,CCCCCCOc1ccc(-c2ccc(C(=O)CCN(C)C)cc2)cc1
15,770,CCCCCCS(=O)(=O)c1ccc(C(=O)CCN2CCN(C(C)=O)CC2)c(Cl)c1Cl
16,470,CCCCCCS(=O)(=O)c1cc(C)c(C(=O)CCN2CCN(C(C)=O)CC2)c(C)c1
17,670,CCCCCCS(=O)(=O)c1cc(Cl)c(C(=O)CCN2CCN(C(C)=O)CC2)cc1Cl
18,730,CCCCCCS(=O)(=O)c1cc(Cl)c(C(=O)CCN2CCN(S(=O)(=O)CC)CC2)cc1Cl
19,470,CCCCCCS(=O)(=O)c1cc(Cl)c(C(=O)CCN2CCOCC2)c(Cl)c1
20,860,CCCCCCOc1cc(Cl)c(C(=O)CCN2CCN(S(=O)(=O)CC)CC2)c(Cl)c1
21,240,CCCCCCS(=O)(=O)c1ccc(C(=O)CCN2CCNC(=O)C2)c(Cl)c1
22,430,CCCCCCS(=O)(=O)c1cc(Cl)c(C(=O)CCN2CCNC(=O)C2)c(Cl)c1
23,270,CCCCCCOc1ccc(C(=O)CCN(C)C)c(I)c1

row,SMILES,Papp [×10⁻⁶ cm/s]
1,CCCCCCOc1cc(Cl)c(C(=O)CCN2CC2C)c(Cl)c1 (configuration not stated),> 1
2,CCCCCCSc1cc(Cl)c(C(=O)CCN2CC2C)cc1Cl (configuration not stated),140
3,CCCCCCOc1cc(C)c(C(=O)CCN2CC2C)c(C)c1 (configuration not stated),930
4,CCCCCCOc1cc(Cl)c(C(=O)CCN2CC2C)cc1Cl (configuration not stated),810
5,CCCCCCSc1ccc(C(=O)CCN2CC2C)c(Cl)c1Cl (configuration not stated),70
6,CCCCCCSc1cc(Cl)c(C(=O)CCN2CC2C)c(Cl)c1 (configuration not stated),190
7,CCCCCCS(=O)(=O)c1ccc(C(=O)CCN2CC2C)c(Cl)c1 (configuration not stated),160
8,CCCCCCOc1ccc(C(=O)CCN2CC2C)c(Cl)c1Cl (configuration not stated),370
9,CCCCCCS(=O)(=O)c1ccc(C(=O)CCN2CC2C)c(Cl)c1Cl (configuration not stated),440
10,CCCCCCSc1ccc(C(=O)CCN2CC2C)c(Cl)c1 (configuration not stated),500
11,CCCCCCS(=O)(=O)c1cc(Cl)c(C(=O)CCN2CC2C)c(Cl)c1 (configuration not stated),980
12,CCCCCCOc1ccc(C(=O)CCN2CC2C)c(Cl)c1 (configuration not stated),870
13,CCCCCCS(=O)(=O)c1cc(Cl)c(C(=O)CCN2CC2C)cc1Cl (configuration not stated),260
14,CCCCCCSc1cc(C)c(C(=O)CCN2CC2C)c(C)c1 (configuration not stated),770
